The source of these data is patent publication US9529005B2, “Modulating bacterial MAM polypeptides in pathogenic disease” (priority 2011, dated 2016).

≈ marks a conversion by molar mass, not a printed value. Like-named read-outs stand apart in the source and are kept apart here. Some results are limits rather than exact numbers.

What all share (assay): Antimicrobial susceptibility testing (MIC), BD Phoenix Automated Microbiology System
Common to all, as to assay type: cell-based

The test system of one assay is Acinetobacter baumannii. The following applies: for MIC: Acinetobacter baumannii. The text has this:
(§1) The inventors performed antimicrobial susceptibility testing (AST) by determining the minimal inhibiting concentration (MIC) of a panel of antimicrobials on all twenty bacterial isolates using the BD Phoenix Automated Microbiology System (Table 3). Antimicrobial panels included several drugs from each of the four most commonly used classes of antimicrobials, aminoglycosides, β-lactams, carbapenems and fluoroquinolones. The panels also included antimicrobials from other classes, such as trimethoprim/sulfamethoxazole, but resistance to these was not considered in the classification of isolates as multidrug-resistant.

The next assay deals with Klebsiella ssp. The following applies: for MIC: Klebsiella.
Description: as §1

The test system of another assay is Escherichia coli. The note with it: for MIC: Escherichia coli.
Description: as §1

The test system of another assay is Pseudomonas aeruginosa.
Description: as §1

Where [1] appears, read: Acinetobacter baumannii isolate 1.
Setting [2] is: Acinetobacter baumannii isolate 2.
[3] abbreviates: Acinetobacter baumannii isolate 3.
Where [4] appears, read: Acinetobacter baumannii isolate 4.
[5] abbreviates: Acinetobacter baumannii isolate 5.
Setting [6] is: read-out: minimal inhibiting concentration, Acinetobacter baumannii isolate 1.
Setting [7] is: read-out: minimal inhibiting concentration, Acinetobacter baumannii isolate 2.
Where [8] appears, read: read-out: minimal inhibiting concentration, Acinetobacter baumannii isolate 3.
The mark [9] stands for this setting: read-out: minimal inhibiting concentration, Acinetobacter baumannii isolate 4.
Setting [10] is: read-out: minimal inhibiting concentration, Acinetobacter baumannii isolate 5.
[11] abbreviates: read-out: minimal inhibiting concentration, Klebsiella ssp. isolate 1.
The mark [12] stands for this setting: read-out: minimal inhibiting concentration, Klebsiella ssp. isolate 2.
The mark [13] stands for this setting: read-out: minimal inhibiting concentration, Klebsiella ssp. isolate 3.
The mark [14] stands for this setting: read-out: minimal inhibiting concentration, Klebsiella ssp. isolate 4.
The mark [15] stands for this setting: read-out: minimal inhibiting concentration, Klebsiella ssp. isolate 5.
Setting [16] is: Pseudomonas aeruginosa isolate 1.
Where [17] appears, read: Pseudomonas aeruginosa isolate 2.
The mark [18] stands for this setting: Pseudomonas aeruginosa isolate 3.
Where [19] appears, read: Pseudomonas aeruginosa isolate 4.
[20] abbreviates: Pseudomonas aeruginosa isolate 5.
Where [21] appears, read: Escherichia coli isolate 1, read-out: minimal inhibiting concentration.
The mark [22] stands for this setting: Escherichia coli isolate 2, read-out: minimal inhibiting concentration.
Where [23] appears, read: Escherichia coli isolate 3, read-out: minimal inhibiting concentration.
The mark [24] stands for this setting: Escherichia coli isolate 4, read-out: minimal inhibiting concentration.
The mark [25] stands for this setting: Escherichia coli isolate 5, read-out: minimal inhibiting concentration.
Wherever interpretation of the result is given: key: R, resistant; I, intermediate; S, susceptible; R*: *As a rule, when ESBL is detected, an interpretation of susceptible or intermediate for penicillins, cephalosporins and aztreonam is reported as resistant.

Consider Amoxillin-Calvulanate [AmoxC.], for which the “interpretation of the result” value with Acinetobacter baumannii (setting [1]), with Acinetobacter baumannii (setting [2]), with Acinetobacter baumannii (setting [3]), in the assay with Acinetobacter baumannii (setting [4]), in the assay with Acinetobacter baumannii (setting [5]) and with Klebsiella ssp. (Klebsiella ssp. isolate 1) was “R” each time. For the same compound, the “interpretation of the result” value in the assay on Klebsiella ssp. (Klebsiella ssp. isolate 2), with Klebsiella ssp. (Klebsiella ssp. isolate 3), with Klebsiella ssp. (Klebsiella ssp. isolate 4) and with Klebsiella ssp. (Klebsiella ssp. isolate 5) was “R” in each case. The minimal inhibiting concentration with Acinetobacter baumannii (setting [1]), with Acinetobacter baumannii (setting [2]), in the assay on Acinetobacter baumannii (setting [3]), with Acinetobacter baumannii (setting [4]), in the assay on Acinetobacter baumannii (setting [5]) and in the assay on Klebsiella ssp. (Klebsiella ssp. isolate 1) was 16/8 each time. For the same compound, the minimal inhibiting concentration with Klebsiella ssp. (Klebsiella ssp. isolate 2) is 16/8; in the assay with Klebsiella ssp. (Klebsiella ssp. isolate 3), 8/4; with Klebsiella ssp. (Klebsiella ssp. isolate 4), 16/8; with Klebsiella ssp. (Klebsiella ssp. isolate 5), 16/8.

Regarding `CO/N=C(\C(=O)N[C@@H]1C(=O)N2C(C(=O)O)=C(COC(C)=O)CS[C@H]12)c1csc(N)n1` [Cefo., Cefotaxime], the “interpretation of the result” value in the assay with Acinetobacter baumannii (setting [1]), with Acinetobacter baumannii (setting [2]), in the assay with Acinetobacter baumannii (setting [3]), in the assay on Acinetobacter baumannii (setting [4]), with Acinetobacter baumannii (setting [5]) and in the assay with Klebsiella ssp. (Klebsiella ssp. isolate 1) was “R” in each case. The “interpretation of the result” value in the assay with Klebsiella ssp. (Klebsiella ssp. isolate 2) is on record as “R”; in the assay with Klebsiella ssp. (Klebsiella ssp. isolate 3), “S”; in the assay with Klebsiella ssp. (Klebsiella ssp. isolate 4), “R”; in the assay with Klebsiella ssp. (Klebsiella ssp. isolate 5) it was “R”. In addition, the MIC in the assay with Acinetobacter baumannii (setting [6]), in the assay with Acinetobacter baumannii (setting [7]), in the assay on Acinetobacter baumannii (setting [8]), with Acinetobacter baumannii (setting [9]), with Acinetobacter baumannii (setting [10]) and in the assay on Klebsiella ssp. (setting [11]) was more than 32 µg/mL in each case. The MIC is more than 32 µg/mL with Klebsiella ssp. (setting [12]), not above 4 µg/mL in the assay on Klebsiella ssp. (setting [13]), more than 32 µg/mL in the assay with Klebsiella ssp. (setting [14]) and more than 32 µg/mL in the assay with Klebsiella ssp. (setting [15]).

As to `C[C@@H](O)[C@H]1C(=O)N2C(C(=O)O)=C(S[C@@H]3CN[C@H](C(=O)Nc4cccc(C(=O)O)c4)C3)[C@H](C)[C@H]12` [Ert., Ertapenem], the susceptibility of isolates entry in the assay with Escherichia coli (all E. coli isolates) and in the assay on Klebsiella ssp. (all Klebsiella ssp. isolates) was “susceptible” each time. The “interpretation of the result” value with Klebsiella ssp. (Klebsiella ssp. isolate 2), in the assay on Klebsiella ssp. (Klebsiella ssp. isolate 3) and with Klebsiella ssp. (Klebsiella ssp. isolate 4) was “S” each time. Further, the MIC with Klebsiella ssp. (setting [12]), in the assay with Klebsiella ssp. (setting [13]) and in the assay with Klebsiella ssp. (setting [14]) was not above 0.5 µg/mL each time.

For `CC(=O)OCC1=C(C(=O)O)N2C(=O)[C@@H](NC(=O)Cc3cccs3)[C@H]2SC1` [Ceph., Cephalotin], the “interpretation of the result” value with Acinetobacter baumannii (setting [1]), in the assay on Acinetobacter baumannii (setting [2]), in the assay with Acinetobacter baumannii (setting [3]), in the assay with Acinetobacter baumannii (setting [4]) and in the assay on Acinetobacter baumannii (setting [5]) was “R” each time. In addition, the minimal inhibiting concentration in the assay on Acinetobacter baumannii (setting [1]), in the assay with Acinetobacter baumannii (setting [2]), in the assay with Acinetobacter baumannii (setting [3]), in the assay with Acinetobacter baumannii (setting [4]) and in the assay with Acinetobacter baumannii (setting [5]) was more than 16 µg/mL in each case.

Ampicillin-Sulbactam [AmpS.]: the “interpretation of the result” value in the assay with Pseudomonas aeruginosa (setting [16]), in the assay with Pseudomonas aeruginosa (setting [17]), in the assay with Pseudomonas aeruginosa (setting [18]), in the assay with Pseudomonas aeruginosa (setting [19]), in the assay on Pseudomonas aeruginosa (setting [20]) and with Escherichia coli (Escherichia coli isolate 1) was “R” in each case. Moreover, the “interpretation of the result” value in the assay on Escherichia coli (Escherichia coli isolate 2), in the assay on Escherichia coli (Escherichia coli isolate 3), with Escherichia coli (Escherichia coli isolate 4) and in the assay with Escherichia coli (Escherichia coli isolate 5) was “R” each time. In addition, the minimal inhibiting concentration with Pseudomonas aeruginosa (setting [16]), with Pseudomonas aeruginosa (setting [17]), with Pseudomonas aeruginosa (setting [18]), in the assay with Pseudomonas aeruginosa (setting [19]), in the assay with Pseudomonas aeruginosa (setting [20]) and in the assay on Escherichia coli (Escherichia coli isolate 1) was 16/8 throughout. In addition, the minimal inhibiting concentration in the assay with Escherichia coli (Escherichia coli isolate 2), in the assay with Escherichia coli (Escherichia coli isolate 3), in the assay on Escherichia coli (Escherichia coli isolate 4) and in the assay with Escherichia coli (Escherichia coli isolate 5) was 16/8 throughout.

As for `COc1c(N2CCNC(C)C2)c(F)cc2c(=O)c(C(=O)O)cn(C3CC3)c12` (stereo not shown) [Gati., Gatifloxacin], the “interpretation of the result” value is “R” with Acinetobacter baumannii (setting [1]); “R” in the assay on Acinetobacter baumannii (setting [2]); “I” in the assay with Acinetobacter baumannii (setting [3]); “R” in the assay on Acinetobacter baumannii (setting [4]); “R” with Acinetobacter baumannii (setting [5]). Also, the MIC in the assay on Acinetobacter baumannii (setting [6]) was more than 4 µg/mL; with Acinetobacter baumannii (setting [7]), more than 4 µg/mL; in the assay with Acinetobacter baumannii (setting [8]), 4 µg/mL (≈ 10.7 µM); in the assay on Acinetobacter baumannii (setting [9]), more than 4 µg/mL; with Acinetobacter baumannii (setting [10]), more than 4 µg/mL.

For `O=C(O)c1cn(C2CC2)c2cc(N3CCNCC3)c(F)cc2c1=O` [Cipro., Ciprofloxacin], the “interpretation of the result” value in the assay with Escherichia coli (Escherichia coli isolate 1), in the assay on Escherichia coli (Escherichia coli isolate 2), in the assay with Escherichia coli (Escherichia coli isolate 3), in the assay on Escherichia coli (Escherichia coli isolate 4) and with Escherichia coli (Escherichia coli isolate 5) was “R” throughout. In addition, the MIC with Escherichia coli (setting [21]), in the assay on Escherichia coli (setting [22]), with Escherichia coli (setting [23]), in the assay on Escherichia coli (setting [24]) and in the assay on Escherichia coli (setting [25]) was more than 2 µg/mL in each case.

For the compound `CO/N=C(\C(=O)N[C@@H]1C(=O)N2C(C(=O)[O-])=C(C[N+]3(C)CCCC3)CS[C@H]12)c1csc(N)n1` [Cefe., Cefepime], the “interpretation of the result” value in the assay on Escherichia coli (Escherichia coli isolate 1), in the assay with Escherichia coli (Escherichia coli isolate 2), in the assay with Escherichia coli (Escherichia coli isolate 3), in the assay with Escherichia coli (Escherichia coli isolate 4), with Klebsiella ssp. (Klebsiella ssp. isolate 1) and in the assay with Klebsiella ssp. (Klebsiella ssp. isolate 2) was “R” in each case. Besides, the “interpretation of the result” value in the assay on Klebsiella ssp. (Klebsiella ssp. isolate 4) is “R”. In addition, the MIC is more than 16 µg/mL in the assay on Escherichia coli (read-out: minimal inhibiting concentration, Escherichia coli isolate 1); more than 16 µg/mL in the assay with Escherichia coli (read-out: minimal inhibiting concentration, Escherichia coli isolate 2); more than 16 µg/mL in the assay on Escherichia coli (read-out: minimal inhibiting concentration, Escherichia coli isolate 3); more than 16 µg/mL in the assay on Escherichia coli (read-out: minimal inhibiting concentration, Escherichia coli isolate 4); 8 µg/mL (≈ 16.6 µM) in the assay on Escherichia coli (read-out: minimal inhibiting concentration, Escherichia coli isolate 5); more than 16 µg/mL in the assay with Klebsiella ssp. (setting [11]). Also, the MIC in the assay with Klebsiella ssp. (setting [12]) was more than 16 µg/mL; in the assay with Klebsiella ssp. (setting [13]), 2 µg/mL (≈ 4.16 µM); in the assay on Klebsiella ssp. (setting [14]), more than 16 µg/mL; with Klebsiella ssp. (setting [15]), 2 µg/mL (≈ 4.16 µM).

Turning to `CCN1CCN(C(=O)N[C@@H](C(=O)N[C@@H]2C(=O)N3[C@@H]2SC(C)(C)[C@@H]3C(=O)O)c2ccccc2)C(=O)C1=O` [Pip., Piperacillin], the “interpretation of the result” value with Acinetobacter baumannii (setting [1]), with Acinetobacter baumannii (setting [2]), with Acinetobacter baumannii (setting [3]), in the assay with Acinetobacter baumannii (setting [4]) and with Acinetobacter baumannii (setting [5]) was “R” each time. Besides, the MIC in the assay on Acinetobacter baumannii (setting [6]), with Acinetobacter baumannii (setting [7]), in the assay on Acinetobacter baumannii (setting [8]), with Acinetobacter baumannii (setting [9]) and in the assay with Acinetobacter baumannii (setting [10]) was more than 64 µg/mL in each case.

As to `C[C@H]1[C@H](NC(=O)/C(=N\OC(C)(C)C(=O)O)c2csc(N)n2)C(=O)N1S(=O)(=O)O` [Az., Aztreonam], the “interpretation of the result” value in the assay on Acinetobacter baumannii (setting [1]), in the assay on Acinetobacter baumannii (setting [2]), in the assay on Acinetobacter baumannii (setting [3]), in the assay on Acinetobacter baumannii (setting [4]), in the assay with Acinetobacter baumannii (setting [5]) and in the assay on Escherichia coli (Escherichia coli isolate 1) was “R” in each case. Further, the “interpretation of the result” value with Escherichia coli (Escherichia coli isolate 2), in the assay on Escherichia coli (Escherichia coli isolate 3), in the assay with Escherichia coli (Escherichia coli isolate 4), in the assay with Klebsiella ssp. (Klebsiella ssp. isolate 1), with Klebsiella ssp. (Klebsiella ssp. isolate 2) and with Klebsiella ssp. (Klebsiella ssp. isolate 3) was “R” throughout. The “interpretation of the result” value in the assay on Klebsiella ssp. (Klebsiella ssp. isolate 4) and with Klebsiella ssp. (Klebsiella ssp. isolate 5) was “R” each time. Besides, the MIC in the assay on Acinetobacter baumannii (Acinetobacter baumannii isolate 1, read-out: minimal inhibiting concentration) is more than 16 µg/mL; in the assay on Acinetobacter baumannii (Acinetobacter baumannii isolate 2, read-out: minimal inhibiting concentration) it was more than 16 µg/mL; in the assay with Acinetobacter baumannii (Acinetobacter baumannii isolate 3, read-out: minimal inhibiting concentration) it was more than 16 µg/mL; with Acinetobacter baumannii (Acinetobacter baumannii isolate 4, read-out: minimal inhibiting concentration) it was more than 16 µg/mL; in the assay on Acinetobacter baumannii (Acinetobacter baumannii isolate 5, read-out: minimal inhibiting concentration) it was more than 16 µg/mL; in the assay on Escherichia coli (setting [21]) it was more than 16 µg/mL. Besides, the MIC in the assay with Escherichia coli (setting [22]) was more than 16 µg/mL; in the assay with Escherichia coli (setting [23]), more than 16 µg/mL; in the assay on Escherichia coli (setting [24]) it was more than 16 µg/mL; in the assay on Escherichia coli (setting [25]), 8 µg/mL (≈ 18.4 µM); in the assay on Klebsiella ssp. (Klebsiella ssp. isolate 1, read-out: minimal inhibiting concentration) it was more than 16 µg/mL; with Klebsiella ssp. (Klebsiella ssp. isolate 2, read-out: minimal inhibiting concentration) it was more than 16 µg/mL. Also, the MIC with Klebsiella ssp. (Klebsiella ssp. isolate 3, read-out: minimal inhibiting concentration) was more than 16 µg/mL; in the assay with Klebsiella ssp. (Klebsiella ssp. isolate 4, read-out: minimal inhibiting concentration), more than 16 µg/mL; in the assay with Klebsiella ssp. (Klebsiella ssp. isolate 5, read-out: minimal inhibiting concentration), more than 16 µg/mL.
